tested on: DU-4475; experiment: normalised response (% of control), CellTiter-Glo; higher = more viable cells (100 = DMSO, 0 = benzethonium chloride kill control); conditions: incubation time: 72 h
Description: (§1)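 DSRT, 72 h incubation, CellTox Green / CellTiter-Glo readout. Signal is normalised to DMSO and benzethonium chloride controls. Value is the normalised response at dose 3.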

Compound | normalised response [%]
C=CCn1c(=O)c2cnc(Nc3ccc(N4CCN(C)CC4)cc3)nc2n1-c1cccc(C(C)(C)O)n1 [MK1775] (100 nM) | 93.4
CO[C@@H]1[C@H](N(C)C(=O)c2ccccc2)C[C@H]2O[C@]1(C)n1c3ccccc3c3c4c(c5c6ccccc6n2c5c31)C(=O)NC4 [Midostaurin] (100 nM) | 96.9
CCNC(=O)c1noc(-c2cc(C(C)C)c(O)cc2O)c1-c1ccc(CN2CCOCC2)cc1 [NVP-AUY922] (10 nM) | 101
O=[N+]([O-])c1ccc2c(c1)S(=O)(=O)C=C2 [Stattic] (500 nM) | 102
O=C(CCCCCCC(=O)Nc1ccccc1)NO [Vorinostat] (100 nM) | 99.6

tested on: HCC1143; experiment: as above; conditions: incubation time: 72 h
Description: as §1

Compound | normalised response [%]
Cc1cc(Nc2nc(N[C@@H](C)c3ncc(F)cn3)ncc2Cl)[nH]n1 [AZD1480] (10 nM) | 103
CC1(COc2ccc3c(c2)ncn3-c2ccc3cccc(N4CCC(N)CC4)c3n2)COC1 [Crenolanib] (100 nM) | 109
Cn1cc(C2=C(c3cn(C4CCN(Cc5ccccn5)CC4)c4ccccc34)C(=O)NC2=O)c2ccccc21 [Enzastaurin] (100 nM) | 103
Nc1ccn([C@@H]2O[C@H](CO)[C@@H](O)C2(F)F)c(=O)n1 [Gemcitabine] (10 nM) | 68.3
C=CCn1c(=O)c2cnc(Nc3ccc(N4CCN(C)CC4)cc3)nc2n1-c1cccc(C(C)(C)O)n1 [MK1775] (100 nM) | 89.2
CO[C@@H]1[C@H](N(C)C(=O)c2ccccc2)C[C@H]2O[C@]1(C)n1c3ccccc3c3c4c(c5c6ccccc6n2c5c31)C(=O)NC4 [Midostaurin] (100 nM) | 95.3
CCNC(=O)c1noc(-c2cc(C(C)C)c(O)cc2O)c1-c1ccc(CN2CCOCC2)cc1 [NVP-AUY922] (10 nM) | 107
O=[N+]([O-])c1ccc2c(c1)S(=O)(=O)C=C2 [Stattic] (500 nM) | 104
O=C(CCCCCCC(=O)Nc1ccccc1)NO [Vorinostat] (100 nM) | 98.8

tested on: BT-474; experiment: as above; conditions: incubation time: 72 h
Description: as §1

Compound | normalised response [%]
Cc1cc(Nc2nc(N[C@@H](C)c3ncc(F)cn3)ncc2Cl)[nH]n1 [AZD1480] (10 nM) | 99.9
CC1(COc2ccc3c(c2)ncn3-c2ccc3cccc(N4CCC(N)CC4)c3n2)COC1 [Crenolanib] (100 nM) | 108
Cn1cc(C2=C(c3cn(C4CCN(Cc5ccccn5)CC4)c4ccccc34)C(=O)NC2=O)c2ccccc21 [Enzastaurin] (100 nM) | 103
Nc1ccn([C@@H]2O[C@H](CO)[C@@H](O)C2(F)F)c(=O)n1 [Gemcitabine] (10 nM) | 89.3
C=CCn1c(=O)c2cnc(Nc3ccc(N4CCN(C)CC4)cc3)nc2n1-c1cccc(C(C)(C)O)n1 [MK1775] (100 nM) | 87.1
CO[C@@H]1[C@H](N(C)C(=O)c2ccccc2)C[C@H]2O[C@]1(C)n1c3ccccc3c3c4c(c5c6ccccc6n2c5c31)C(=O)NC4 [Midostaurin] (100 nM) | 85.3
CCNC(=O)c1noc(-c2cc(C(C)C)c(O)cc2O)c1-c1ccc(CN2CCOCC2)cc1 [NVP-AUY922] (10 nM) | 116
O=[N+]([O-])c1ccc2c(c1)S(=O)(=O)C=C2 [Stattic] (500 nM) | 94.5
O=C(CCCCCCC(=O)Nc1ccccc1)NO [Vorinostat] (100 nM) | 96.2

tested on: MCF-10A; experiment: as above; conditions: incubation time: 72 h
Description: as §1

Compound | normalised response [%]
Cc1cc(Nc2nc(N[C@@H](C)c3ncc(F)cn3)ncc2Cl)[nH]n1 [AZD1480] (10 nM) | 92.3
CC1(COc2ccc3c(c2)ncn3-c2ccc3cccc(N4CCC(N)CC4)c3n2)COC1 [Crenolanib] (100 nM) | 110
Cn1cc(C2=C(c3cn(C4CCN(Cc5ccccn5)CC4)c4ccccc34)C(=O)NC2=O)c2ccccc21 [Enzastaurin] (100 nM) | 101
Nc1ccn([C@@H]2O[C@H](CO)[C@@H](O)C2(F)F)c(=O)n1 [Gemcitabine] (10 nM) | 102
C=CCn1c(=O)c2cnc(Nc3ccc(N4CCN(C)CC4)cc3)nc2n1-c1cccc(C(C)(C)O)n1 [MK1775] (100 nM) | 73.3
CO[C@@H]1[C@H](N(C)C(=O)c2ccccc2)C[C@H]2O[C@]1(C)n1c3ccccc3c3c4c(c5c6ccccc6n2c5c31)C(=O)NC4 [Midostaurin] (100 nM) | 68.7
CCNC(=O)c1noc(-c2cc(C(C)C)c(O)cc2O)c1-c1ccc(CN2CCOCC2)cc1 [NVP-AUY922] (10 nM) | 95
O=[N+]([O-])c1ccc2c(c1)S(=O)(=O)C=C2 [Stattic] (500 nM) | 106
O=C(CCCCCCC(=O)Nc1ccccc1)NO [Vorinostat] (100 nM) | 101

tested on: HCC1937; experiment: as above; conditions: incubation time: 72 h
Description: as §1

Compound | normalised response [%]
Cc1cc(Nc2nc(N[C@@H](C)c3ncc(F)cn3)ncc2Cl)[nH]n1 [AZD1480] (10 nM) | 98.9
CC1(COc2ccc3c(c2)ncn3-c2ccc3cccc(N4CCC(N)CC4)c3n2)COC1 [Crenolanib] (100 nM) | 102
Cn1cc(C2=C(c3cn(C4CCN(Cc5ccccn5)CC4)c4ccccc34)C(=O)NC2=O)c2ccccc21 [Enzastaurin] (100 nM) | 101
Nc1ccn([C@@H]2O[C@H](CO)[C@@H](O)C2(F)F)c(=O)n1 [Gemcitabine] (10 nM) | 90.8
C=CCn1c(=O)c2cnc(Nc3ccc(N4CCN(C)CC4)cc3)nc2n1-c1cccc(C(C)(C)O)n1 [MK1775] (100 nM) | 90.7
CO[C@@H]1[C@H](N(C)C(=O)c2ccccc2)C[C@H]2O[C@]1(C)n1c3ccccc3c3c4c(c5c6ccccc6n2c5c31)C(=O)NC4 [Midostaurin] (100 nM) | 85.5
CCNC(=O)c1noc(-c2cc(C(C)C)c(O)cc2O)c1-c1ccc(CN2CCOCC2)cc1 [NVP-AUY922] (10 nM) | 95.7
O=[N+]([O-])c1ccc2c(c1)S(=O)(=O)C=C2 [Stattic] (500 nM) | 94.3
